From ChEMBL document CHEMBL1201862, “PubChem BioAssay data set” (2004) come the findings set out here.

Some test systems named below: U-251; MOLT-4; EKVX; OVCAR-5; SNB-75; NCI-H460; A498; CAKI-1; CCRF-CEM; PC-3; SR; MDA-MB-231; SW-620; SN12C; NCI-H23; ACHN; HCT-116; Hs-578T; 786-0; LOX IMVI.
Common to all, as to assay: NCI-60 cell line screen, 48 h

Molecules are shown by their SMILES.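 Following 48 hours of exposure in 96-well plates, responses at five concentrations were used to interpolate endpoints linearly. At the GI50, growth is halved.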 Calls of active or inactive are those of the source. Rule as the data show it: active = GI50 up to about 1.1 µM and inactive = higher.

For `O=[N+]([O-])c1ccc2c(c1)C(N1CCN(CCO)CC1)Cc1ccc(F)cc1S2` (configuration not stated), the GI50 was 10.1 µM (inactive) in the assay with U-251; 1.04 µM (active) in the assay on MOLT-4; 11.2 µM (inactive) in the assay on EKVX; 13.4 µM (inactive) in the assay with OVCAR-5; 2.05 µM (inactive) in the assay with SNB-75; 8.61 µM (inactive) in the assay on NCI-H460. Also, the GI50 with A498 was 11.6 µM (inactive); in the assay on CAKI-1, 13.1 µM (inactive); in the assay on CCRF-CEM, 3.18 µM (inactive); in the assay on PC-3, 2.65 µM (inactive); with SR, 4.04 µM (inactive); in the assay on MDA-MB-231, 12.9 µM (inactive). Also, the GI50 is 4.95 µM (inactive) in the assay with SW-620; 11.5 µM (inactive) in the assay on SN12C; 13.5 µM (inactive) in the assay with NCI-H23; 4.44 µM (inactive) in the assay with ACHN; 5 µM (inactive) with HCT-116; 6.75 µM (inactive) in the assay on Hs-578T. Besides, the GI50 in the assay with 786-0 was 12 µM (inactive).

For the molecule `CC1(C)OCC(C(O)C2OC(C)(C)OC2C=O)O1` (configuration not stated), the GI50 with U-251, in the assay on MOLT-4, in the assay with EKVX, with OVCAR-5, in the assay on LOX IMVI and in the assay on SNB-75 was > 100 µM (inactive) each time. Moreover, the GI50 with A498, with CCRF-CEM, with PC-3, in the assay on SR, with MDA-MB-231 and in the assay on SW-620 was > 100 µM (inactive) throughout. Also, the GI50 in the assay with SN12C, with NCI-H23, in the assay with ACHN, with HCT-116, in the assay with Hs-578T and with 786-0 was > 100 µM (inactive) throughout.

As for `COC1C(C)OC(OC2CC(C)(O)Cc3cc4c(c(O)c32)C(=O)c2c(O)cc3c(c2C4=O)OC2OC3(C)C(O)C(N(C)C)C2O)C(OC)C1(C)OC` (configuration not stated), the GI50 in the assay with U-251 was 0.00285 µM (active); with MOLT-4, 0.00469 µM (active); in the assay on EKVX, 0.0409 µM (active); in the assay with OVCAR-5, 0.0628 µM (active); with LOX IMVI, 0.00316 µM (active); with SNB-75 it was 0.0165 µM (active). Besides, the GI50 with NCI-H460 was 0.00345 µM (active); in the assay on A498 it was 0.0256 µM (active); with CCRF-CEM it was 0.00475 µM (active); in the assay on PC-3, 0.000204 µM (active); in the assay with SR, 0.00385 µM (active); in the assay on MDA-MB-231, 0.00129 µM (active). The GI50 in the assay with SW-620 is 0.00457 µM (active); in the assay with SN12C it was 0.0378 µM (active); in the assay with NCI-H23, 0.00496 µM (active); in the assay with HCT-116 it was 0.015 µM (active); with Hs-578T it was 5.79e-05 µM (active); with 786-0, 0.0861 µM (active).

`C=CC[C@H]1[C@H](O[Si](C)(C)C(C)(C)C)C=CC(=O)[C@@H]1CC(=O)N(Cc1ccccc1)Cc1ccccc1`: the GI50 is 19.3 µM (inactive) in the assay with U-251; 9.93 µM (inactive) with MOLT-4; 12.9 µM (inactive) with EKVX; 32.4 µM (inactive) in the assay on OVCAR-5; 12.5 µM (inactive) with LOX IMVI; 20.6 µM (inactive) in the assay on NCI-H460. Besides, the GI50 is 57.5 µM (inactive) with A498; 12.4 µM (inactive) in the assay with CAKI-1; 7.85 µM (inactive) in the assay with CCRF-CEM; 10.4 µM (inactive) in the assay on PC-3; 9.29 µM (inactive) in the assay with SR; 14.2 µM (inactive) in the assay on MDA-MB-231. Further, the GI50 in the assay with SW-620 is 26.7 µM (inactive); in the assay with SN12C, 18.8 µM (inactive); with NCI-H23, 5.46 µM (inactive); in the assay on ACHN it was 15 µM (inactive); with HCT-116, 8.2 µM (inactive); in the assay with Hs-578T, 6.27 µM (inactive). Moreover, the GI50 in the assay on 786-0 is 17.5 µM (inactive).

On to `CC1OC(NCCNCCNC2OC(C)C(O)C(O)C2O)C(O)C(O)C1O` (configuration not stated), for which the GI50 in the assay on U-251, in the assay on MOLT-4, with EKVX, in the assay with OVCAR-5, with LOX IMVI and in the assay with SNB-75 was > 100 µM (inactive) throughout. Besides, the GI50 in the assay with NCI-H460, in the assay with A498, in the assay with PC-3, with SR, in the assay with MDA-MB-231 and in the assay with SW-620 was > 100 µM (inactive) in each case. In addition, the GI50 with SN12C, in the assay on NCI-H23, in the assay with ACHN, in the assay on HCT-116, in the assay with Hs-578T and in the assay on 786-0 was > 100 µM (inactive) throughout.

For `CN(C)CCSCCO`, the GI50 in the assay with U-251, with EKVX, in the assay on OVCAR-5, with LOX IMVI, in the assay on SNB-75 and with NCI-H460 was > 100 µM (inactive) in each case. Also, the GI50 in the assay on A498, in the assay with CAKI-1, in the assay on PC-3, in the assay on SR, in the assay with MDA-MB-231 and with SW-620 was > 100 µM (inactive) each time. Besides, the GI50 with SN12C, in the assay with NCI-H23, in the assay with ACHN, with HCT-116, with Hs-578T and in the assay on 786-0 was > 100 µM (inactive) each time.

Turning to `S=C1c2ccccc2N=C(NC2CCCC2)C2CSCN12` (configuration not stated), the GI50 in the assay with U-251 is 95.5 µM (inactive); in the assay with MOLT-4, 26.3 µM (inactive); in the assay with EKVX, 37.2 µM (inactive); in the assay with OVCAR-5, > 100 µM (inactive); in the assay on LOX IMVI, 75.2 µM (inactive); with NCI-H460 it was 61.1 µM (inactive). Also, the GI50 with A498 was 88.9 µM (inactive); in the assay on CAKI-1 it was > 100 µM (inactive); in the assay with CCRF-CEM it was 32 µM (inactive); with PC-3, 40.6 µM (inactive); in the assay with SR it was 39.6 µM (inactive); in the assay with MDA-MB-231, > 100 µM (inactive). The GI50 in the assay on SW-620 was > 100 µM (inactive); in the assay with SN12C it was > 100 µM (inactive); in the assay with ACHN it was > 100 µM (inactive); with HCT-116 it was 80.7 µM (inactive); with Hs-578T, 44.4 µM (inactive); in the assay on 786-0, > 100 µM (inactive).

In the case of `CC(=O)C1=C(C)N(c2ccc(C)cc2)C2(O)C=CC(O)=C3C(=O)c4ccccc4C(=O)C312` (configuration not stated), the GI50 in the assay on U-251 was 18.5 µM (inactive); in the assay on MOLT-4, 3.05 µM (inactive); with EKVX, 19.3 µM (inactive); in the assay with OVCAR-5, 23.7 µM (inactive); with LOX IMVI, 6.95 µM (inactive); in the assay on SNB-75, 19.4 µM (inactive). The GI50 in the assay with NCI-H460 is 7.23 µM (inactive); with A498 it was 12.9 µM (inactive); in the assay on CAKI-1 it was 13.5 µM (inactive); in the assay with PC-3 it was 16.4 µM (inactive); in the assay on SR it was 36.9 µM (inactive); in the assay with MDA-MB-231 it was 20.7 µM (inactive). For the same molecule, the GI50 is 4.81 µM (inactive) in the assay with SW-620; 13.6 µM (inactive) with SN12C; 21.1 µM (inactive) in the assay with NCI-H23; 11.8 µM (inactive) with ACHN; 5.52 µM (inactive) in the assay with HCT-116; 24.2 µM (inactive) in the assay on Hs-578T. Moreover, the GI50 in the assay on 786-0 was 9.14 µM (inactive).
